# Assay results reported in PMC10247784, “Physiological activation of human and mouse bitter taste receptors by bile acids” (Communications Biology, 2023).
# Several values for one entry are separate records, joined by “and”; a condition that tells them apart may be missing. Equal values may be shown once.
# How the values were obtained:
# mouse Tas2r123 = molecular target: T1, mouse Tas2r123 (Mus musculus, UniProt P59528); experiment: Calcium imaging assay (FLIPR), HEK293T-Gα16gust44 cells transfected with mouse Tas2r123; assay type: cell-based; conditions: for Activation threshold concentration Tas2r123: p < 0.01 vs empty vector; for Δ F/F: Tas2r123
# T1 construct: expressed in transfected cells; host or cells: HEK293T-Gα16gust44
# T1 sequence (P59528 1-333): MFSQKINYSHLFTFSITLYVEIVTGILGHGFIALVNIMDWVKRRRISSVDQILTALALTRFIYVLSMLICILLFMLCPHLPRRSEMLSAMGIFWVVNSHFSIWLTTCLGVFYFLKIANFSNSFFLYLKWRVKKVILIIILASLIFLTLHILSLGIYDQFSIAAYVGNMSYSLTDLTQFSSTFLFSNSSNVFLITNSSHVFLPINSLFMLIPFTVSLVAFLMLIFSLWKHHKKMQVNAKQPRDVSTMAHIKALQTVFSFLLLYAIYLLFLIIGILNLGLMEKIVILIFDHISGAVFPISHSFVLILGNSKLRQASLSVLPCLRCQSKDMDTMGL
# Description: (§1) This set of bile acids was chosen because of their commercial availability in high purities, their diversity within the class of bile acids and their previous detection and quantitation in human blood. Stock solutions were prepared in DMSO.
# (§2) As basal growth medium for the HEK293T-Gα16gust44 cell line[17],[59] served Dulbecco’s modified eagle medium (DMEM) (Thermo Fisher Scientific, Darmstadt, Germany) supplemented with 10 % fetal bovine serum (Sigma-Aldrich, Steinheim, Germany), 2 mM L-glutamine (Sigma-Aldrich, Steinheim, Germany), 100 units/ml penicillin (Sigma Aldrich, Steinheim, Germany) and 100 µg/ml streptomycin (Sigma Aldrich, Steinheim, Germany). Growth conditions were 37 °C, 5 % CO2 and saturated air-humidity[60].
# (§3) HEK293T-Gα16gust44 cells were seeded on poly-D-lysine (10 µg/ml) coated 96-well plates to reach a confluence of 40-60 % the next day. For transient transfection 150 ng of plasmid DNA containing the receptor of interest and 0.3 µl lipofectamine 2000 (Thermo Fisher Scientific, Darmstadt, Germany) per well were used and transfection took place according to the manual of lipofectamine 2000. […] The empty vector DNA (mock) was transfected as negative control[14],[41].
# (§4) Cells were loaded using the calcium-sensitive fluorescent dye Fluo-4-AM (Abcam, Cambridge, Great Britain) in the presence of 2.5 mM probenecid (Sigma-Aldrich, Steinheim, Germany) the day after transfection[13],[41]. 1 h after loading, cells were washed with C1 buffer using a BioTek Cell Washer, incubated in the dark for half an hour and washed again. For automated agonist application and measurement of fluorescence changes, a FLIPR^TETRA device (Molecular Devices, San José, United States) was used. Viability of cells was tested by application of 100 nM Somatostatin 14 (Bachem, Bubendorf, Switzerland)[42].
# (§5) Measured data were negative control corrected by subtracting the signal of the mock-transfected cells and exported to Microsoft Excel using the FLIPR software ScreenWorks 4.2. In Microsoft Excel software, standardization of maximum fluorescence intensities to the basal fluorescence and normalization to the buffer-only control was done to calculate the relative fluorescence changes (ΔF/F).
# (§6) Initial screening experiments performed in duplicate wells were confirmed by at least one replication and representative traces were selected for display. All dose-response relationships were determined by three independent experiments (biological replicates) performed in duplicates (technical replicates). Threshold concentrations, defined as lowest substance concentrations leading to statistically significant elevated fluorescence changes in receptor-transfected cells compared with empty vector-transfected cells, were determined using SigmaPlot with Student’s t-test to evaluate statistical significance (p < 0.01).
# human TAS2R46 = molecular target: T2, human TAS2R46 (Homo sapiens, UniProt P59540); experiment: Calcium imaging assay (FLIPR), HEK293T-Gα16gust44 cells transfected with human TAS2R46; assay type: cell-based; conditions: for Efficacy = maximal amplitude (ΔF/F) / Efficacy (maximal amplitude ΔF/F), individual data points / Δ F/F: TAS2R46; for Efficacy = maximal amplitude (ΔF/F) / Efficacy (maximal amplitude ΔF/F), individual data points: bile acids; for Efficacy = maximal amplitude (ΔF/F): mean; for Efficacy (maximal amplitude ΔF/F), individual data points: single replicates; for Activation threshold concentration TAS2R46: lowest concentration with significantly increased fluorescence vs empty vector (p < 0.01); for Efficacy (signal amplitude) versus control stimulus, TAS2R46: highest applied concentrations, control 10 µM strychnine
# T2 construct: expressed in transfected cells; host or cells: HEK293T-Gα16gust44
# T2 sequence (P59540 1-309): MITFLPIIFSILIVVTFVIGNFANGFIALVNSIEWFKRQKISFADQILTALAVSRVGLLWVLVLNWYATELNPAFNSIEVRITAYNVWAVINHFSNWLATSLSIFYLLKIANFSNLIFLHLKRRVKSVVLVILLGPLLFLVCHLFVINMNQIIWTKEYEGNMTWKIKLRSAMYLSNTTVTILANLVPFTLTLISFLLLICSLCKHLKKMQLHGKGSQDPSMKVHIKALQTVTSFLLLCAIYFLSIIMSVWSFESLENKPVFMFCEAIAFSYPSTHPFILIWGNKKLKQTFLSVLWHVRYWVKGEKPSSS
# Description: as §1, §2, §3, §4, §5, §6
Structure (SMILES),Activation threshold concentration Tas2r123 (mouse Tas2r123) [µM],"Δ F/F (mouse Tas2r123; conc. 0,01 mM)","Δ F/F (mouse Tas2r123; conc. 0,1 mM)","Δ F/F (mouse Tas2r123; conc. 0,03 mM)","Δ F/F (mouse Tas2r123; conc. 0,3 mM)","Δ F/F (mouse Tas2r123; conc. 0,001 mM)","Δ F/F (mouse Tas2r123; conc. 0,003 mM)",Efficacy = maximal amplitude (ΔF/F) (human TAS2R46),"Δ F/F (human TAS2R46; conc. 0,01 mM)","Δ F/F (human TAS2R46; conc. 0,1 mM)","Δ F/F (human TAS2R46; conc. 0,03 mM)","Δ F/F (human TAS2R46; conc. 0,3 mM)","Δ F/F (human TAS2R46; conc. 0,001 mM)",Δ F/F (human TAS2R46; conc. 1 mM),"Δ F/F (human TAS2R46; conc. 0,003 mM)",Activation threshold concentration TAS2R46 (human TAS2R46) [µM],further results
"C[C@H](CCC(=O)O)[C@H]1CC[C@H]2[C@@H]3[C@H](O)C[C@@H]4C[C@H](O)CC[C@]4(C)[C@H]3C[C@H](O)[C@]12C [Cholic Acid, cholic acid]",10,–,–,–,–,–,–,–,–,–,–,–,–,–,–,–,–
"C[C@H](CCC(=O)O)[C@H]1CC[C@H]2[C@@H]3CC[C@@H]4C[C@H](O)CC[C@]4(C)[C@H]3C[C@H](O)[C@]12C [Deoxycholic Acid, deoxycholic acid]",10,–,–,–,–,–,–,–,–,–,–,–,–,–,–,–,–
"C[C@H](CCC(=O)NCC(=O)O)[C@H]1CC[C@H]2[C@@H]3[C@H](O)C[C@@H]4C[C@H](O)CC[C@]4(C)[C@H]3C[C@H](O)[C@]12C [Glycocholic Acid, glycocholic acid]",30,-0.001074,-0.0006317,-0.000632,-0.001006,7.054e-5,0.000982,0.0591,0.003139,0.004292,0.007529,0.01216,0.002929,0.0591,0.003879,1000,"Efficacy (maximal amplitude ΔF/F), individual data points (human TAS2R46; listed as GCA): 0.05097 and 0.06295 and 0.06339"
"C[C@H](CCC(=O)NCCS(=O)(=O)O)[C@H]1CC[C@H]2[C@@H]3[C@H](O)C[C@@H]4C[C@H](O)CC[C@]4(C)[C@H]3C[C@H](O)[C@]12C [Taurocholic Acid, taurocholic acid]",100,0.015,0.09205,0.02651,0.1589,0.002404,0.009262,0.03422,0.006451,0.007108,0.004646,0.00491,0.003048,0.03422,0.00216,1000,"Efficacy (maximal amplitude ΔF/F), individual data points (human TAS2R46; listed as TCA): 0.02095 and 0.04014 and 0.04158"
"C[C@H](CCC(=O)NCCS(=O)(=O)O)[C@H]1CC[C@H]2[C@@H]3CC[C@@H]4C[C@H](O)CC[C@]4(C)[C@H]3CC[C@]12C [Taurolithocholic Acid, taurolithocholic acid]",–,–,–,–,–,–,–,0.2226,–,–,–,–,–,–,–,0.3,"Efficacy (maximal amplitude ΔF/F), individual data points (human TAS2R46; listed as TLCA): 0.2236 and 0.2143 and 0.2299; Efficacy (signal amplitude) versus control stimulus, TAS2R46 (human TAS2R46): about equal to that obtained for strychnine; Efficacy (signal amplitude) versus control stimulus, TAS2R46 (human TAS2R46; listed as TCLA): full agonist; Efficacy (signal amplitude) versus control stimulus, TAS2R46 (human TAS2R46; listed as TLCA): significantly higher than that of TCA and GCA and comparable to the control stimulus strychnine"
"C[C@H](CCC(=O)O)[C@H]1CC[C@H]2[C@@H]3[C@@H](O)C[C@@H]4C[C@H](O)CC[C@]4(C)[C@H]3CC[C@]12C [Ursodeoxycholic Acid, ursodeoxycholic acid]",10,0.06526,–,0.08617,–,0.01545,0.01427,–,–,–,–,–,–,–,–,–,"Δ F/F (mouse Tas2r123; conc. 0,0001 mM): -5.942e-5; Δ F/F (mouse Tas2r123; conc. 0,0003 mM): -0.0007331"
